Test results taken from patent US5624897A, “Cyclic depsipeptides having 18 ring atoms, and their use for combating endoparasites” (Bayer Aktiengesellschaft, priority 1993, dated 1997).

Experiments:
[1] = system: Trichostrongylus colubriformis; experiment: In vivo nematode test Trichostrongylus colubriformis/sheep; details: experimentally infected sheep, treated after prepatent period; pure active compound orally and/or intravenously; dose at which nematode egg excretion with the faeces stops completely
Procedure: Trichostrongylus colubriformis/Sheep
Sheep which have been infected experimentally with Trichostrongylus colubriformis were treated after the prepatent period had elapsed. The active compounds in the form of the pure active compound were administered orally and/or intravenously.
(§1) The degree of effectiveness is determined by quantitative determination of the nematode eggs excreted with the faeces before and after the treatment.
(§2) If, after the treatment, egg excretion stops completely, the nematodes were aborted or damaged to such an extent that they no longer produce eggs (dosis effectiva).

Haemonchus contortus = experiment: In vivo nematode test Haemonchus contortus/sheep; details: experimentally infected sheep, treated after prepatent period; pure active compound orally and/or intravenously; dose at which nematode egg excretion with the faeces stops completely
Procedure: Haemonchus contortus/Sheep
Sheep which have been infected experimentally with Haemonchus contortus were treated after the prepatent period had elapsed. The active compounds in the form of the pure active compound were administered orally and/or intravenously.
as §1, §2

**Q.** What does the source list for `CC[C@H](C)[C@H]1C(=O)O[C@H](C)C(=O)N(C)[C@@H](C)C(=O)O[C@H](C)C(=O)N(C)[C@@H]([C@@H](C)CC)C(=O)O[C@H](C)C(=O)N1C` [Example 1, Cyclo(-N-methyl-L-alanyl-D-lactyl-N-methyl-L-isoleucyl-D-lactyl-N-methyl-L- isoleucyl-D-lactyl-)]?
**A.** Dosis effectiva [1]: 10 mg/kg; Dosis effectiva (Haemonchus contortus): 10 mg/kg
